In assay [1] the target is Brd4 BD2 (Homo sapiens (Human), UniProt O60885). Put plainly: HTRF evaluation of bromodomain inhibitors, Brd4 BD2. Format: binding. Particulars: for IC50: HTRF, H4ac4 peptide 600 nM, 24 h at 4° C.; for Selectivity BD2/BD1: ratio of the BD1 and BD2 IC50. As to the method:
(§1) HTRF reagents and buffers were purchased from Cisbio Bioassays. The assay used a terbium (Ill) cryptate donor reagent conjugated to an anti-GST antibody (MAb anti-GST-Tb; GSTTLA), a streptavidin-conjugated acceptor reagent (streptavidin-d2) and Cisbio proprietary buffers (EPlgeneous Binding Domain Diluent and Detection buffer, respectively). GST-tagged bromodomains (BDs) were expressed in E. coli and purified using standard procedures. Incubation of GST-tagged BDs with biotinylated acetylated H4 peptide (H4K5acK8acK12acK16ac, here named H4ac4) brings the donor and acceptor into close proximity and allows for a FRET reaction. GST-tagged proteins in 25 mM Hepes pH 7.5, 150 mM NaCl, 0.5 mM DTT were assayed at a final concentration of 5 nM. Biotinylated H4ac4 peptides were used at a final concentration of 50, 600 nM in assays involving Brd4 BD1, Brd4 BD2, respectively. The antibody-conjugated donor was used at 0.5 nM and the streptavidin-conjugated acceptor was used at ⅛ of the H4ac4 peptide concentration. Inhibitors were tested by performing an eleven-point dilution series with a maximal final concentration of […]. These concentrations allowed a fixed DMSO concentration at 0.2%, critical for a Z′ factor ≥0.8. Components were incubated at 4° C. for 4 h (BD1) or for 24 h (BD2). Experiments were performed in 384-well white plates (Greiner ref. 781080) and analyzed in a ClarioStar plate reader (BMG LABTECH, excitation at 330 nm and emission at 620 and 665 nm, corresponding to the donor and acceptor emission peaks, respectively; the 665/620 ratio is used to calculate the specific HTRF signal) with an integration delay of 60 μs and an integration time of 400 μs.
(TR-FRET usually uses a lanthanide donor and a delayed reading to cut background.)

For assay [2], the system named is LPS-stimulated J774 mouse macrophages cells. Put plainly: RNA sequencing, gene expression profiles of LPS-stimulated cells. Format: cell-based. The note with it: 10 μM, 6 h, RNAseq. As to the method: Experimental procedure: RNA was extracted from 5 million of LPS-stimulated J774 mouse macrophages cells treated for 6 h with DMSO (negative control), reference iBETs (JQ1 and iBET726, 1 μM) and lead compounds (MLE83 and JUP102, 10 μM) using Trizol (Invitrogen) according to manufacturer's instructions. RNA sequencing was subcontracted to BGI Genomics ([…] Sequencing Technology). FASTQ sequencing files were aligned to mouse genome (GRCm39 assembly) using STAR (v2.7.1a). Bam files were counted using HTSeq framework (v0.11.2). Reads normalization and differential analysis was performed suing SARTools and DESeq2 (v1.22.2) R packages. Genes were considered as differentially expressed when |log 2FC|>1 AND p value <0.05 between control and treated conditions. Gene Set Enrichment Analysis was performed using GSEA v4.2.1 software against the hallmark v7.5 gene sets from the Broad Institute Molecular Signature Database. A detailed description of GSEA methodology and interpretation is provided online (http://www.broadinstitute.org/gsea/doc/GSEAUserGui-deFrame.html).

Assay [3] concerns J774 mouse macrophages. Put plainly: Cytotoxicity and anti-inflammatory activity (IL-6/TNFα, AI score) after iBET/LPS treatment. Particulars: AI score versus cytotoxicity, FIG. 7. Format: cell-based. As for the experimental part: J774 mouse macrophages were cultured in DMEM 10% Fetal Calf Serum (FCS) 1% penicillin and streptomycin at 37° C. 5% CO2. […]. Cells were then seeded at 250,000 cells/ml and treated with 1 μM, 10 μM and 100 μM for each iBET and, then, after 30 min, with 100 μg/ml LPS (lipopolysaccharides, Cell Signaling Technology ref: 14011S) to induce inflammatory response. After 24 h, cytotoxicity was evaluated using CytoTox-ONE™ Homogeneous Membrane Integrity Assay and/or CellTiter 96 Non-radioactive Cell Proliferation Assay (Promega) according to manufacturer's instructions. IL6 and TNFα secretion were assessed using respectively IL-6 Mouse ELISA assay and TNFα Mouse ELISA assay (Invitrogen) according to manufacturer's instructions.
Experimental procedure: J774 mouse macrophages were cultured in DMEM 10% Fetal Calf Serum (FCS) 1% penicillin and streptomycin at 37° C. 5% CO2. […] After 24 h, cytotoxicity was evaluated using the Cell Proliferation Kit I (Roche) according to manufacturer's instructions. IC50 were calculated using GraphPad (Prism) using non linear regression curve fit. IL6 and TNF[…] secretion was assessed using respectively IL-6 Mouse and TNFα Mouse ELISA assay (Invitrogen) on cell culture supernatants according to manufacturer's instructions. […]

Assay [4] addresses Brd4 BD1 (Homo sapiens (Human), UniProt O60885). Put plainly: HTRF evaluation of bromodomain inhibitors, Brd4 BD1. The assay is classed as binding. Particulars: H4ac4 peptide 50 nM, 4 h at 4° C. As to the method: as §1

Consider `C#CCOCCOCCOCc1cn([C@@H]2c3cc(C(=O)OC)ccc3N(C(C)=O)[C@@H](CC)[C@H]2C)nn1` [XQ], for which, in assay [1], half-maximal inhibition (IC50) was put at 1490 nM and the “Selectivity BD2/BD1” value turned out to be 11.2. Also, the “GSEA analysis, iBET-associated cellular responses” value in assay [2] is “reduces inflammatory response and MYC signaling”. Besides, in assay [3], the inflammatory activity/toxicity ratio result is given as “best inflammatory activity/toxicity ratio”. Moreover, inhibition in assay [4] was half-maximal at 16600 nM (IC50).
Take `C=CCCCC(=O)Nc1ccc(-c2ccc3c(c2)[C@@H](n2cc(-c4ccccc4)nn2)[C@H](C)[C@H](CC)N3C(C)=O)cc1` [XD, N-(4-((2S,3R,4S)-1-acetyl-2-ethyl-3-methyl-4-(4-phenyl-1H-1,2,3-triazol-1-yl)-1,2,3,4-tetrahydroquinolin-6-yl)phenyl)hex-5-enamide]: in assay [1], the IC50 was found to be 620 nM and the “Selectivity BD2/BD1” value stood at 1.1. Further, in assay [2], the “GSEA analysis, iBET-associated cellular responses” value is “reduces inflammatory response and MYC signaling”; the “number of genes impacted, times fewer than JUP102” value is reported as ~10 times. The inflammatory activity/toxicity ratio entry in assay [3] is given as “best inflammatory activity/toxicity ratio”. The compound also came in with an IC50 in assay [4] of 562 nM.

One may read the IC50 as the concentration needed to halve the response being measured. Lower therefore signals greater potency in that assay.
